Test results reported in PMC10746543, “Design principles for cyclin K molecular glue degraders” (Nature Chemical Biology, 2023).
pEC50: −log10 of the molar value. Where “and” joins values, the source holds several entries; their conditions need not be identical. Equal entries are not always repeated. Where two headings read alike, the source gives them in different places.

How the values were obtained:
[1] = test system: cyclin K–eGFP degradation reporter; test: Cyclin K reporter stability analysis (dual-color cyclin K–eGFP reporter); assay type: cell-based, human
Method: HEK293T–Cas9 cells expressing the cyclin K–eGFP degradation reporter were resuspended at 1 × 10^6 ml^−1 and 50 µl of cell suspension was seeded in non-cell-culture-treated 384-well plates. Shortly after, cells were treated with drug or DMSO for 5 h. […] The fluorescent signal was quantified by flow cytometry (LSRFortessa flow cytometer, BD Biosciences). Using FlowJo (flow cytometry analysis software, BD Biosciences), the geometric mean of the eGFP and mCherry fluorescent signal for round and mCherry-positive cells was calculated. The ratio of eGFP to mCherry was normalized to the average of three DMSO-treated controls.

[2] = target: T1, CDK12–cyclin K and DDB1 (Homo sapiens, UniProt Q16531+Q9NYV4, K965R); test: TR-FRET ternary complex formation assay (compound titration); assay type: binding; conditions: for EC50: sheet MOESM7, read-out: log TR-FRET EC50 (converted); for TR-FRET signal at compound concentration: replicate titrations
T1 construct: His6–CDK12 (a.a. 713–1,052); full-length or beta-propeller B domain deletion (ΔBPB: a.a. 396–705 deleted) constructs of His6–DDB1ΔBPB, StrepII–Avi–DDB1, or His6–Spy–DDB1; made in house; host or cells: Trichoplusia ni High Five insect cells (baculovirus)
Outline: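 Delayed (70 μs) time-resolved read; FRET computed as 520 nm over 490 nm emission.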

[3] = test system: HEK293T cells; test: Drug sensitivity assay (CellTiter-Glo viability) with or without MLN4924 pretreatment; assay type: cell-based, human; conditions: for pEC50: Homo sapiens, HEK-293T; for Toxicity rescue: MLN4924-mediated cytotoxicity rescue, 10 µM used where n.d.
Outline: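 Viability of HEK293T–Cas9 cells was compared after 3-day drug treatment with or without 100 nM MLN4924 pretreatment (2 h, versus DMSO). Values are CellTiter-Glo signals relative to DMSO controls.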

[4] = Supplementary Table 2, HEK293T viability, 72 h, compound alone, read-out: Cellular assays EC50
[5] = compound concentration 0.468 nM
[6] = compound concentration 7.92001 nM
[7] = compound concentration 15.84 nM
[8] = compound concentration 30.96 nM
[9] = compound concentration 62.6401 nM
[10] = compound concentration 125.28 nM
[11] = compound concentration 244.8 nM
[12] = compound concentration 993.601 nM
[13] = compound concentration 2001.6 nM

T1 sequence (Q9NYV4 713-1052 K965R): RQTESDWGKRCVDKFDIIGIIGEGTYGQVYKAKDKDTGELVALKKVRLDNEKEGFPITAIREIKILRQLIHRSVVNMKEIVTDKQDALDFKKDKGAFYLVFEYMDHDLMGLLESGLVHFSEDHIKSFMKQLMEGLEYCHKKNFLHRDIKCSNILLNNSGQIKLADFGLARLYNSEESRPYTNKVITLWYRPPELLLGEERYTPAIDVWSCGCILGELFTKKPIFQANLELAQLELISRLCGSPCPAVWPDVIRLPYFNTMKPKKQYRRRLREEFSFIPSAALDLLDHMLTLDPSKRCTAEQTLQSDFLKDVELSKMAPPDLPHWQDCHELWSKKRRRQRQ
T1 sequence (O75909 1-267 partner): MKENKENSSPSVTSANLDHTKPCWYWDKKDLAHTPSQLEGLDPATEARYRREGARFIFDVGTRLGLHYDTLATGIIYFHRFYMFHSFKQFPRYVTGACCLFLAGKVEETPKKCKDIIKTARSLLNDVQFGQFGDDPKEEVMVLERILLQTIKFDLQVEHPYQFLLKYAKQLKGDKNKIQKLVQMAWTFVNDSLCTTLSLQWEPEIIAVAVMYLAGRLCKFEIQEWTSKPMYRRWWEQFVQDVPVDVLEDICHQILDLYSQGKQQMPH
T1 sequence (Q16531 whole entry): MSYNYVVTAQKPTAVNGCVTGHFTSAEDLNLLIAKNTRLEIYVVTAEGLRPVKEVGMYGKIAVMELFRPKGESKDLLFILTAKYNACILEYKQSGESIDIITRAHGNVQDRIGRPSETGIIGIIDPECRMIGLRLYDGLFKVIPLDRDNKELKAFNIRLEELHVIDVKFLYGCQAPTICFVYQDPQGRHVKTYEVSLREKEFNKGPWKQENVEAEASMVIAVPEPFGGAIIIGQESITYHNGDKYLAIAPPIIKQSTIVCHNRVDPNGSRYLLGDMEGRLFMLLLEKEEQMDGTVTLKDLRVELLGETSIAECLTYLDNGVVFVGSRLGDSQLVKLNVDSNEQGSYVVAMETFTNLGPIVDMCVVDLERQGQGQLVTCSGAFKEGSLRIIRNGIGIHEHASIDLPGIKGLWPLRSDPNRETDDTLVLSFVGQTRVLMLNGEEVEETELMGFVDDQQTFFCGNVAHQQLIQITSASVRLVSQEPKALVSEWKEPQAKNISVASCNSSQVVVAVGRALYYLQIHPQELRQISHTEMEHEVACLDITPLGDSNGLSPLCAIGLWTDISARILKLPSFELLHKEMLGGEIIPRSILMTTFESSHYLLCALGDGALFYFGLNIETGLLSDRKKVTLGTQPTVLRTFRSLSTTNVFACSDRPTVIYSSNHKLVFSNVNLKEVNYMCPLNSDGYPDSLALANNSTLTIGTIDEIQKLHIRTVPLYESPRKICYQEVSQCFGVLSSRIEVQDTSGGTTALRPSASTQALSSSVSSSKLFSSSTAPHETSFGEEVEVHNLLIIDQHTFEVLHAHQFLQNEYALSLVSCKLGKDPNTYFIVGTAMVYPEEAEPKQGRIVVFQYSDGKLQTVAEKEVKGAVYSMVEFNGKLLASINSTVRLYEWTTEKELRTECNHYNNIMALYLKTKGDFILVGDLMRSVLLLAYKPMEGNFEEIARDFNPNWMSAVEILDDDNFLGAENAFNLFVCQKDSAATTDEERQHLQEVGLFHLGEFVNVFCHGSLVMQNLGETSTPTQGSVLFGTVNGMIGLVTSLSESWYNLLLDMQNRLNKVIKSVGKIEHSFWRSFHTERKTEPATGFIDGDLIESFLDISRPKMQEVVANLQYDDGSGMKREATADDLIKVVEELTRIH

In the case of CC[C@H](CO)Nc1nc(NCc2ccc(CN(C)C)cc2)c2ncn(C(C)C)c2n1 [DS07], the DC50 ([1]; Supplementary Table 2, HEK293T cycK-eGFP reporter, 5 h, read-out: Cellular assays DC50) was greater than 10000 nM, the pEC50 ([2]; Supplementary Table 2, read-out: TR-FRET EC50 TR-FRET) was 6.54 and the “TR-FRET signal, individual replicate” value ([2]; compound concentration 4.68 nM) was 0.1397 and 0.1571. For the same compound, the “TR-FRET signal, individual replicate” value ([2]; compound concentration 21.6 nM) was 0.1381 and 0.1543, the “TR-FRET signal, individual replicate” value ([2]; compound concentration 36 nM) was 0.1446 and 0.1595 and the “TR-FRET signal, individual replicate” value ([2]; compound concentration 79.2001 nM) was 0.1442 and 0.1633. For the same compound, the “TR-FRET signal, individual replicate” value ([2]; compound concentration 158.4 nM) was 0.1697 and 0.1741, the “TR-FRET signal, individual replicate” value ([2]; compound concentration 309.6 nM) was 0.1833 and 0.1813 and the “TR-FRET signal, individual replicate” value ([2]; compound concentration 626.401 nM) was 0.2131 and 0.2. The “TR-FRET signal, individual replicate” value ([2]; compound concentration 1252.8 nM) was 0.2455 and 0.2204, the “TR-FRET signal, individual replicate” value ([2]; compound concentration 2448 nM) was 0.2509 and 0.2343 and the “TR-FRET signal, individual replicate” value ([2]; compound concentration 9936.01 nM) was 0.2701 and 0.2518. The “TR-FRET signal, individual replicate” value ([2]; compound concentration 20016 nM) was 0.2482 and 0.2271, the EC50 [2] was 285 nM and the pEC50 [3, 4] was less than 5.00. It also gave a Toxicity rescue ([3]; Supplementary Table 2) of 0%.

In the case of CC[C@H](CO)Nc1nc(NCc2ccc3ccccc3c2)c2ncn(C(C)C)c2n1 [DS08], the DC50 ([1]; source data sheet correlations, read-out: DC50) was 724 nM, the TR-FRET signal [2, 5] was 0.2538 and 0.248 and 0.2145 and 0.2136 and the “TR-FRET signal, individual replicate” value [2, 5] was 0.2538 and 0.248 and 0.2145 and 0.2136. The “TR-FRET signal at compound concentration” value [2, 5] was 0.2538 and 0.248 and 0.2145 and 0.2136, the TR-FRET signal ([2]; compound concentration 2.16 nM) was 0.2768 and 0.2874 and 0.2634 and 0.2686 and the “TR-FRET signal, individual replicate” value ([2]; compound concentration 2.16 nM) was 0.2768 and 0.2874 and 0.2634 and 0.2686. The “TR-FRET signal at compound concentration” value ([2]; compound concentration 2.16 nM) was 0.2768 and 0.2874 and 0.2634 and 0.2686, the TR-FRET signal ([2]; compound concentration 3.6 nM) was 0.3502 and 0.3555 and 0.3511 and 0.3733 and the “TR-FRET signal, individual replicate” value ([2]; compound concentration 3.6 nM) was 0.3502 and 0.3555 and 0.3511 and 0.3733. The “TR-FRET signal at compound concentration” value ([2]; compound concentration 3.6 nM) was 0.3502 and 0.3555 and 0.3511 and 0.3733, the TR-FRET signal [2, 6] was 0.4902 and 0.4911 and 0.5114 and 0.5651 and the “TR-FRET signal, individual replicate” value [2, 6] was 0.4902 and 0.4911 and 0.5114 and 0.5651. The “TR-FRET signal at compound concentration” value [2, 6] was 0.4902 and 0.4911 and 0.5114 and 0.5651, the TR-FRET signal [2, 7] was 0.7316 and 0.7507 and 0.8127 and 0.857 and the “TR-FRET signal, individual replicate” value [2, 7] was 0.7316 and 0.7507 and 0.8127 and 0.857. For the same compound, the “TR-FRET signal at compound concentration” value [2, 7] was 0.7316 and 0.7507 and 0.8127 and 0.857, the TR-FRET signal [2, 8] was 1.126 and 1.191 and 1.297 and 1.247 and the “TR-FRET signal, individual replicate” value [2, 8] was 1.126 and 1.191 and 1.297 and 1.247. The “TR-FRET signal at compound concentration” value [2, 8] was 1.126 and 1.191 and 1.297 and 1.247, the TR-FRET signal [2, 9] was 1.6143 and 1.736 and 1.841 and 1.867 and the “TR-FRET signal, individual replicate” value [2, 9] was 1.6143 and 1.736 and 1.841 and 1.867. The “TR-FRET signal at compound concentration” value [2, 9] was 1.6143 and 1.736 and 1.841 and 1.867, the TR-FRET signal [2, 10] was 2.093 and 2.298 and 2.427 and 2.467 and the “TR-FRET signal, individual replicate” value [2, 10] was 2.093 and 2.298 and 2.427 and 2.467. For the same compound, the “TR-FRET signal at compound concentration” value [2, 10] was 2.093 and 2.298 and 2.427 and 2.467, the TR-FRET signal [2, 11] was 2.523 and 2.773 and 2.7872 and 2.833 and the “TR-FRET signal, individual replicate” value [2, 11] was 2.523 and 2.773 and 2.7872 and 2.833. For the same compound, the “TR-FRET signal at compound concentration” value [2, 11] was 2.523 and 2.773 and 2.7872 and 2.833, the TR-FRET signal [2, 12] was 2.957 and 3.301 and 3.125 and 3.145 and the “TR-FRET signal, individual replicate” value [2, 12] was 2.957 and 3.301 and 3.125 and 3.145. For the same compound, the “TR-FRET signal at compound concentration” value [2, 12] was 2.957 and 3.301 and 3.125 and 3.145, the TR-FRET signal [2, 13] was 3.117 and 3.31 and 3.185 and 3.127 and the “TR-FRET signal, individual replicate” value [2, 13] was 3.117 and 3.31 and 3.185 and 3.127. For the same compound, the “TR-FRET signal at compound concentration” value [2, 13] was 3.117 and 3.31 and 3.185 and 3.127, the pEC50 ([2]; in vitro complex formation, 50 nM CDK12–cyclin K, 100 nM DDB1, text and figures, read-out: TR-FRET EC50) was 7.22 and the EC50 [2] was 60.3 nM. The pEC50 ([2]; source data sheet correlations, read-out: TR-FRET EC50) was 7.22, the pEC50 ([3]; Supplementary Fig. 5, HEK293T, CellTiter Glo, 72h, read-out: Viability EC50, no MLN4924) was 5.47 and the pEC50 [3, 4] was 5.46. For the same compound, the Toxicity rescue ([3]; Supplementary Table 2) was 186%.
